Consider 15 compounds from patent US12522598B2, “3-(2-(heteroaryl)-pyridin-4-yl)-5-(trifluoromethyl)-1,2,4-oxadiazole derivatives as HDAC6 inhibitors” (ORYZON GENOMICS, S.A., priority 2019, dated 2026).

For the assay, the target named is T1, HDAC6 (Homo sapiens, UniProt Q9UBN7).
T1 construct: purchased BPS Bioscience 50006
T1 sequence (Q9UBN7 1-1215): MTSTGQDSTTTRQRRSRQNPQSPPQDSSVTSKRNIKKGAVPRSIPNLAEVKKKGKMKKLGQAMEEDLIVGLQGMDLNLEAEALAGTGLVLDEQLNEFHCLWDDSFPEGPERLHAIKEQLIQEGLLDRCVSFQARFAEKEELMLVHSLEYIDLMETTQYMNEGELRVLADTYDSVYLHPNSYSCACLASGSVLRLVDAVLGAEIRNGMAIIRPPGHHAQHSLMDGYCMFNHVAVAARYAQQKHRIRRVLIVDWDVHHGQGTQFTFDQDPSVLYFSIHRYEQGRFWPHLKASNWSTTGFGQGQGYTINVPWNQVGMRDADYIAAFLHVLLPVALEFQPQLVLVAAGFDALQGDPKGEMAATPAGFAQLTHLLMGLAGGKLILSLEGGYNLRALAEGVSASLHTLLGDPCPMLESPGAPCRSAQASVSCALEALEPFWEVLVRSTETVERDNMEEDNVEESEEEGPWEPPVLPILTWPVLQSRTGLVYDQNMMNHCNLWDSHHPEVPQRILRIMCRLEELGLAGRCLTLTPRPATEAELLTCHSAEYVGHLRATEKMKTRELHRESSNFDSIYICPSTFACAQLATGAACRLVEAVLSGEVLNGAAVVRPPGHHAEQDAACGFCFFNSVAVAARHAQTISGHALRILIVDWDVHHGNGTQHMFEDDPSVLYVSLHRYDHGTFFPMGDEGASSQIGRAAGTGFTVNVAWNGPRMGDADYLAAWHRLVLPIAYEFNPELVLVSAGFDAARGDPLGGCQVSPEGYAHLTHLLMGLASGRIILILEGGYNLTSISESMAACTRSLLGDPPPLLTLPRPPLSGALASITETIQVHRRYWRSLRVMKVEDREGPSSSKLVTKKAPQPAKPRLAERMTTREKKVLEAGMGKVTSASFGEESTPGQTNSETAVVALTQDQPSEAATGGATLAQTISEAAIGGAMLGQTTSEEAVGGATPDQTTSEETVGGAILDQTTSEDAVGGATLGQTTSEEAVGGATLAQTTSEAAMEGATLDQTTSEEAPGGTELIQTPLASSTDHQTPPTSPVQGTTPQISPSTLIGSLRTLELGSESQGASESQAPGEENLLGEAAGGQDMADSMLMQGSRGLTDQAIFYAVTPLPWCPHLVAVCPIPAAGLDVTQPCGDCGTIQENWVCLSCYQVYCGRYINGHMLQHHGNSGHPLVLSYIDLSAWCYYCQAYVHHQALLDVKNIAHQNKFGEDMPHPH
Description: HDAC6 enzyme inhibition assay (fluorimetric). Format: biochemical. Particulars: 3 hours preincubation with enzyme, fraction of positive control; for inhibition at 0.1 µM: read-out: HDAC6 % inh @ 0.1 μM; for inhibition at 0.3 µM: read-out: HDAC6 % inh @ 0.3 μM; for inhibition at 1 µM: 1 μM test compound, read-out: HDAC6 % inh @ 1 μM. As for the experimental part: A fluorimetric assay was used to determine the biochemical activity of the inhibitors on HDAC6 in 96-Well Half Area Black Microplates (Corning #3686)+TopSeal-A Black Sealing Film (Perkin Elmer #6050173). Test compounds were dissolved in DMSO. Half-log serial dilutions of test compounds were prepared in DMSO and then diluted 1:10 in assay buffer (BPS Bioscience #50031).
2.5 μL of enzyme (BPS Bioscience #50006) was incubated with 2.5 μL of test compounds for 3 hours in assay buffer with 0.1 mg/mL Bovine Serum Albumin (Sigma-Aldrich #A7030) at 21° C. in 22.5 μL total volume. The enzymatic reaction was started with the addition of 2.5 μL of a fluorogenic acetylated peptide substrate (BPS Bioscience #50037). The final concentration of enzyme and substrate in the reaction were 8.8 nM and 9 μM, respectively. After 45 minutes of incubation at 37° C., the addition of 25 μL of a development solution (BPS
Bioscience #50030) releases a fluorophore whose amount is proportional to the amount of the deacetylated product. Fluorescence intensity was measured after 15 minutes incubation at 21° C. with a Tecan Infinite F200 microplate reader (excitation 360 nm-emission 460 nm).
The negative control (background) was represented by the reaction mix in the absence of the enzyme (with 0.1% DMSO), while the positive control of deacetylase activity was obtained in the absence of test compounds (with 0.1% DMSO) after background subtraction. Percentage of inhibition was calculated as a fraction of the positive control.

Counter-ions that a name gives are not always drawn.

Consider `Cn1c(C(=O)N2CCOCC2)cc2cc(-c3cc(-c4noc(C(F)(F)F)n4)ccn3)ncc21` [Example 1, (1-Methyl-5-(4-(5-(trifluoromethyl)-1,2,4-oxadiazol-3-yl)pyridin-2-yl)-1H-pyrrolo[2,3-c]pyridin-2-yl)(morpholino)methanone], for which the “HDAC6 % inh @ 0.1 μM” value (0.1 μM test compound) worked out at 59%. Moreover, the “HDAC6 % inh @ 0.3 μM” value (0.3 μM test compound) turned out to be 87%.

As to `CN(C)CCCN(C)C(=O)c1cc2cc(-c3cc(-c4noc(C(F)(F)F)n4)ccn3)ncc2n1C` [Example 1a, N-(3-(Dimethylamino)propyl)-N,1-dimethyl-5-(4-(5-(trifluoromethyl)-1,2,4-oxadiazol-3-yl)pyridin-2-yl)-1H-pyrrolo[2,3-c]pyridine-2-carboxamide], for the setting “0.1 μM test compound”, the inhibition at 0.1 µM was determined as 74%. Moreover, where the note is “0.3 μM test compound”, the inhibition at 0.3 µM worked out at 91%.

With `CN(CCO)C(=O)c1cc2cc(-c3cc(-c4noc(C(F)(F)F)n4)ccn3)ncc2n1C` [Example 1b, N-(2-Hydroxyethyl)-N,1-dimethyl-5-(4-(5-(trifluoromethyl)-1,2,4-oxadiazol-3-yl)pyridin-2-yl)-1H-pyrrolo[2,3-c]pyridine-2-carboxamide], the inhibition at 1 µM was 95%. Moreover, the inhibition at 0.1 µM (0.1 μM test compound) worked out at 72%. Also, the inhibition at 0.3 µM (0.3 μM test compound) turned out to be 88%.

Take `CN1CCC(CN(C)C(=O)c2cc3cc(-c4cc(-c5noc(C(F)(F)F)n5)ccn4)ncc3n2C)CC1` [Example 1c, N,1-Dimethyl-N-((l-methylpiperidin-4-yl)methyl)-5-(4-(5-(trifluoromethyl)-1,2,4-oxadiazol-3-yl)pyridin-2-yl)-1H-pyrrolo[2,3-c]pyridine-2-carboxamide]: the inhibition at 1 µM is 98%. In addition, the inhibition at 0.1 µM (0.1 μM test compound) was 85%. Also, the inhibition at 0.3 µM (0.3 μM test compound) was determined as 94%.

For `Cn1c(C(=O)N(CCO)CCO)cc2cc(-c3cc(-c4noc(C(F)(F)F)n4)ccn3)ncc21` [Example 1d, N,N-Bis(2-hydroxyethyl)-1-methyl-5-(4-(5-(trifluoromethyl)-1,2,4-oxadiazol-3-yl)pyridin-2-yl)-1H-pyrrolo[2,3-c]pyridine-2-carboxamide], the inhibition at 1 µM was found to be 96%. In addition, the inhibition at 0.1 µM (0.1 μM test compound) is 79%. Besides, where the note is “0.3 μM test compound”, the inhibition at 0.3 µM is 91%.

Take `COCCCn1nc(-c2cc(-c3noc(C(F)(F)F)n3)ccn2)c2ncccc21` [Example 1e, 3-(2-(1-(3-Methoxypropyl)-1H-pyrazolo[4,3-b]pyridin-3-yl)pyridin-4-yl)-5-(trifluoromethyl)-1,2,4-oxadiazole]: the inhibition at 1 µM was 95%. For the same compound, under “0.1 μM test compound”, the inhibition at 0.1 µM turned out to be 68%. Further, the inhibition at 0.3 µM (0.3 μM test compound) stood at 88%.

Take `FC(F)(F)c1nc(-c2ccnc(-c3nn(CC4CCOCC4)c4cccnc34)c2)no1` [Example 1f, 3-(2-(1-((Tetrahydro-2H-pyran-4-yl)methyl)-1H-pyrazolo[4,3-b]pyridin-3-yl)pyridin-4-yl)-5-(trifluoromethyl)-1,2,4-oxadiazole]: the inhibition at 1 µM is 94%. In addition, the inhibition at 0.1 µM (0.1 μM test compound) is 54%. The inhibition at 0.3 µM (0.3 μM test compound) amounted to 81%.

As to `COCCn1nc(-c2cc(-c3noc(C(F)(F)F)n3)ccn2)c2nccnc21` [Example 1g, 3-(2-(1-(2-Methoxyethyl)-1H-pyrazolo[3,4-b]pyrazin-3-yl)pyridin-4-yl)-5-(trifluoromethyl)-1,2,4-oxadiazole], the inhibition at 1 µM stood at 80%. The inhibition at 0.1 µM (0.1 μM test compound) was found to be 28%. Also, where the note is “0.3 μM test compound”, the inhibition at 0.3 µM came out at 56%.

For `CN(CC1CC1)C(=O)c1cc2cc(-c3cc(-c4noc(C(F)(F)F)n4)ccn3)ncc2n1C` [Example 2, N-(Cyclopropylmethyl)-N,1-dimethyl-5-(4-(5-(trifluoromethyl)-1,2,4-oxadiazol-3-yl)pyridin-2-yl)-1H-pyrrolo[2,3-c]pyridine-2-carboxamide hydrochloride], the inhibition at 1 µM turned out to be 96%. Also, for the setting “0.1 μM test compound”, the inhibition at 0.1 µM was 75%. Moreover, for the setting “0.3 μM test compound”, the inhibition at 0.3 µM was found to be 92%.

`COCCN(C)C(=O)c1cc2cc(-c3cc(-c4noc(C(F)(F)F)n4)ccn3)ncc2n1C` [Example 2a, N-(2-Methoxyethyl)-N,1-dimethyl-5-(4-(5-(trifluoromethyl)-1,2,4-oxadiazol-3-yl)pyridin-2-yl)-1H-pyrrolo[2,3-c]pyridine-2-carboxamide hydrochloride]: the inhibition at 1 µM amounted to 97%. Where the note is “0.1 μM test compound”, the inhibition at 0.1 µM amounted to 66%. In addition, under “0.3 μM test compound”, the inhibition at 0.3 µM worked out at 89%.

In the case of `CCN(C)C(=O)c1cc2cc(-c3cc(-c4noc(C(F)(F)F)n4)ccn3)ncc2n1C` [Example 2b, N-Ethyl-N,1-dimethyl-5-(4-(5-(trifluoromethyl)-1,2,4-oxadiazol-3-yl)pyridin-2-yl)-1H-pyrrolo[2,3-c]pyridine-2-carboxamide hydrochloride], the inhibition at 1 µM turned out to be 96%. Also, under “0.1 μM test compound”, the inhibition at 0.1 µM stood at 89%. Moreover, the inhibition at 0.3 µM (0.3 μM test compound) is 95%.

Regarding `COCCN(CCOC)C(=O)c1cc2cc(-c3cc(-c4noc(C(F)(F)F)n4)ccn3)ncc2n1C` [Example 2c, N,N-Bis(2-methoxyethyl)-1-methyl-5-(4-(5-(trifluoromethyl)-1,2,4-oxadiazol-3-yl)pyridin-2-yl)-1H-pyrrolo[2,3-c]pyridine-2-carboxamide hydrochloride], the inhibition at 1 µM was determined as 97%. Further, where the note is “0.1 μM test compound”, the inhibition at 0.1 µM was 71%. For the setting “0.3 μM test compound”, the inhibition at 0.3 µM was 91%.

`C[C@H]1COCCN1C(=O)c1cc2cc(-c3cc(-c4noc(C(F)(F)F)n4)ccn3)ncc2n1C` [Example 2d, (S)-(1-Methyl-5-(4-(5-(trifluoromethyl)-1,2,4-oxadiazol-3-yl)pyridin-2-yl)-1H-pyrrolo[2,3-c]pyridin-2-yl)(3-methylmorpholino)methanone hydrochloride]: the inhibition at 1 µM worked out at 96%. Moreover, for the setting “0.1 μM test compound”, the inhibition at 0.1 µM was 64%. Further, where the note is “0.3 μM test compound”, the inhibition at 0.3 µM came out at 86%.

For the compound `Cn1c(C(=O)N2CCC(O)C2)cc2cc(-c3cc(-c4noc(C(F)(F)F)n4)ccn3)ncc21` (stereo not shown) [Example 2e, (3-Hydroxypyrrolidin-1-yl)(1-methyl-5-(4-(5-(trifluoromethyl)-1,2,4-oxadiazol-3-yl)pyridin-2-yl)-1H-pyrrolo[2,3-c]pyridin-2-yl)methanone hydrochloride], the inhibition at 1 µM was found to be 97%. Moreover, the inhibition at 0.1 µM (0.1 μM test compound) came out at 78%. Under “0.3 μM test compound”, the inhibition at 0.3 µM is 92%.

`Cn1c(C(=O)N2CC[C@@H](O)C2)cc2cc(-c3cc(-c4noc(C(F)(F)F)n4)ccn3)ncc21` [Example 2g, (R)-(3-Hydroxypyrrolidin-1-yl)(1-methyl-5-(4-(5-(trifluoromethyl)-1,2,4-oxadiazol-3-yl)pyridin-2-yl)-1H-pyrrolo[2,3-c]pyridin-2-yl)methanone hydrochloride]: the inhibition at 1 µM was determined as 97%. Besides, the inhibition at 0.1 µM (0.1 μM test compound) was 78%. For the same compound, where the note is “0.3 μM test compound”, the inhibition at 0.3 µM was determined as 86%.
